{"source": "patent US11384071B2", "about": "“Inhibitors of mechanotransduction to treat pain and modulate touch perception” (Max-Delbrück-Centrum für Molekulare Medizin in der …, priority 2016, dated 2022)", "key": {"[1]": {"test_system": "dissociated mouse DRG neurons", "assay": "Action potential properties and electrical excitability of dissociated DRG neurons", "assay_type": "cell-based", "description": "Whole-cell, patch-clamp recordings were conducted as previously described 5-7, using patch pipettes with a tip resistance of 3-6 MΩ, filled with a solution of: 110 mM KCl, 10 mM NaCl, 1 mM MgCl2, 1 mM EGTA and 10 mM HEPES, adjusted to pH 7.3 with KOH. (For experiments on DRG neurons 10 mM QX-314 was added to the pipette to block voltage-gated sodium channels 8 Extracellular solutions contained 140 mM NaCl, 4 mM KCl, 2 mM CaCl2, 1 mM MgCl2, 4 mM glucose, 10 mM HEPES, adjusted to pH 7.4 with NaOH. A Zeiss 200 inverted microscope and an EPC-10 amplifier in combination with Patchmaster software was used, data was analyzed using Fitmaster software (HEKA Electronik GmbH, Germany). Pipette and membrane capacitance were compensated using the auto function of Patchmaster, series resistance was compensated by at least 60% to minimize voltage errors. Mechanical stimuli were applied using a polished glass probe driven by the MM3A micromanipulator (Kleindiek Nanotechnik, Germany). Mechanical stimuli were applied by either; indenting the cell soma or by culturing cells on elastomeric pillar arrays and applying the stimulus to the cell-substrate interface by deflecting an individual pilus.\nBriefly, elastomeric pillar arrays of defined dimensions were cast in PDMS with an elasticity of 2 MPa. Cells cultured on these arrays were monitored using whole-cell patch-clamp whilst a glass probe was used to apply repeated deflections (of differing magnitudes) to an individual pilus directly beneath the cell. Images were obtained of the pilus before and after deflection and images were analyzed off-line to determine the exact deflection for each data point. Images were obtained using a 40×LD objective and a CoolSNAP EZ CCD camera. Images were analyzed off-line using Igor software (WaveMetrics, USA). The collection of stimulus-response data using pillar arrays generates data sets with variation in both x and y. In order to effectively compare groups for each cell studied we binned response data by stimulus size in the following bins: 0-10, 10-50, 50-100, 100-250, 250-500, 500-1000. For each cell, current amplitudes within each bin were averaged and then bins averaged between cells—we then tested for significance by testing whether the current amplitude for a given stimulation range (i.e. bin) differed between samples. A power analysis was used to determine that moderate to strong effects between samples could be detected with a sample size >4. […] To distinguish mechanoreceptors from nociceptors in the mixed population of acutely prepared DRG neurons, the shape of the generated action potential (AP) was used. […] For quantitative analysis of mechanosensitivity we measured responses in the most sensitive sub-population of mechanoreceptors, previously defined as Typell mechanoreceptors (Poole et al., 2014).\nWe evaluated the effects of OB-1 and OB-2 on mechanosensitive currents in acutely cultured mouse sensory neurons. Neurons were classified on the basis of their AP configuration as mechanoreceptors or nociceptors^2,21."}, "STOML1": {"target": "T1, STOML1 (Mus musculus, UniProt Q8CI66)", "T1 construct": "expressed in transfected cells; host or cells: HEK293 (general statement on the BiFC assay)", "T1 sequence (Q8CI66 whole entry)": "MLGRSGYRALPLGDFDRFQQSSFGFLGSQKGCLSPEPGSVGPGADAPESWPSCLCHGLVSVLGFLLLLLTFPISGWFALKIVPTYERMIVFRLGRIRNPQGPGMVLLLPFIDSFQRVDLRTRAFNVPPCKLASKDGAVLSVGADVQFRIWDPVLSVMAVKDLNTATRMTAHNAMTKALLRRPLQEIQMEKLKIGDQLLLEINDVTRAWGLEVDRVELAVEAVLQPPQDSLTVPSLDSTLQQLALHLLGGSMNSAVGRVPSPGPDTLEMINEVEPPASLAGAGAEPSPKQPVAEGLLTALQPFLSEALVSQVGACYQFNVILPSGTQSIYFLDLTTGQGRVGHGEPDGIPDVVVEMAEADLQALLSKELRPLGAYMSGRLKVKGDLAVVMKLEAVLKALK", "assay": "BiFC assay of STOML1 self-association", "assay_type": "cell-based", "description": "FIG. 8: Effects of STOML3 modulating molecules on other Stomatin-domain proteins. (a) BiFC signal development observed when cells were transfected with Stomatin-VC/-VN, STOML1-VC/-VN, STOML2-VC/-VN, STOML3-VC/-VN or Podocin-VC/-VN expression constructs respectively. […] (b) OB-1 was tested at two different concentrations (2 μm and 20 μm) using the BiFC assay where wild type STOML3 was used as both bait and prey.\nIn mammals STOML3 belongs to a family of five structurally conserved membrane proteins, including stomatin, STOML1, STOML2, and podocin^10,12-16, all of which self-associate via their stomatin-domain (FIG. 8a)^10. Self-association of stomatin-domain proteins can be monitored in HEK293 cells using Bimolecular Fluorescence Complementation (BiFC) whereby N- and C-terminal halves of the YFP molecule are tagged to the prey and bait protein STOML3^2,17 (FIG. 1a). Irreversible association of the YFP fragments produces fluorescence that increases linearly over time (FIG. 1b)."}, "NGF-injected mice": {"test_system": "NGF-injected mice", "assay": "NGF-induced hyperalgesia", "assay_type": "in vivo, mouse", "description": "(§1) Mice were allowed to habituate to the testing apparatus (acrylic chambers 10×10 cm in size, suspended above a wired mesh grid) one hour prior to behavioral testing. Only once the subject was at rest and not moving, calibrated von-Frey hair monofilaments (Aesthesio® set of 20 monofilaments, Ugo Basil) were applied to the plantar surface of the hind paw in order to deliver target forces from 0.008 grams to 4 grams increasing in an approximately logarithmic scale. A single stimulus indicated by a slight bending of the filament lasted for two seconds unless the mouse withdrew its paw. In order to measure mechanosensitivity the up-and-down method described by Chaplan^13 was adapted as follows: Testing began with a filament delivering a target force of 0.4 g, but filaments were applied three times. A positive response was noted if the subject withdrew the paw to all three filament applications, so that the successively smaller filament was presented next. […] Paw withdrawal thresholds were calculated as median of 23 to 30 determined turning points of the particular force stimuli applied to the subject."}, "naive mice": {"test_system": "naive mice", "assay": "Paw withdrawal threshold and radiant heat latency in naive mice", "assay_type": "in vivo, mouse", "settings": "intraplantar 250-500 pmol per paw", "description": "as §1\nDrug injections of OB-1 or DMSO alone were dissolved in Ringer's solution (in mM: 135 NaCl, 5 KCl, 5 HEPES, 1.8 CaCl2), 1 MgCl2) to make the OB-1 and vehicle solution. […]"}, "diabetic mice (STZ)": {"test_system": "diabetic mice (STZ)", "assay": "Streptozotocin (STZ) painful diabetic neuropathy model, von Frey", "assay_type": "in vivo, mouse", "procedure": "Eight week old C57Bl/6 mice were used for diabetes experiments. Diabetes was induced. Briefly, 6 consecutive intraperitoneal injections of streptozotocin (STZ, Sigma-Aldrich, #S0130) were given with 24 h intervals at 60 mg/Kg body weight in citrate buffer (0.05M, pH 4.5) to induce diabetes. Blood glucose was maintained between 400 and 500 mg/dL throughout the experimental period. Mechanical sensitivity was measured in regular intervals and only those mice showing increased sensitivity to von Frey filaments as compared with basal sensitivity were selected for testing the effects of OB-1.\nVon Frey filaments of increasing strength (0.07, 0.16, 0.4, 0.6, 1.0 and 1.4 g) are applied 5 times with at least 1 min interval to intraplantar surface of hind paws to test the mechanical sensitivity. […] Frequency of positive responses was recorded out of 5 stimuli and percent of withdrawal frequency was calculated. Threshold was calculated as the von Frey filament strength required to elicit 60% withdrawal frequency. Vehicle or OB-1 (approximately 20 μl solution, 250 pmol per paw) was injected subcutaneously into intraplantar surface of diabetic mice under mild isoflurane anesthesia and mechanical sensitivity was measured from both injected (ipsilateral) and non-injected (contralateral) paws at 4 and 24 h post-injection."}}}
{"smiles": "CCOC(=O)c1c(-c2ccccc2)oc2ccc(Oc3c([N+](=O)[O-])ncn3C)cc12", "note": "[OB-1, Ethyl 5-((1-methyl-4-nitro-1H-imidazol-5-yl)oxy)-2-phenylbenzofuran-3-carboxylate]", "values": [{"measurement": "AHP (after-hyperpolarization potential)", "setting": "[1]; Mechanoreceptors (n = 9)", "result": "−62.3 ± 1.6", "unit": "mV"}, {"measurement": "APamp (action potential amplitude)", "setting": "[1]; Mechanoreceptors (n = 9)", "result": "97.8 ± 4.9", "unit": "mV"}, {"measurement": "APtime (total duration of action potential)", "setting": "[1]; Mechanoreceptors (n = 9)", "result": "11.90 ± 2.9", "unit": "ms"}, {"measurement": "Input R", "setting": "[1]; Mechanoreceptors (n = 9)", "result": "40.8 ± 6.7", "unit": "MΩ"}, {"measurement": "Threshold", "setting": "[1]; Mechanoreceptors (n = 9)", "result": "700.0 ± 305.9", "unit": "pA"}, {"measurement": "Tpeak (Time to action potential peak)", "setting": "[1]; Mechanoreceptors (n = 9)", "result": "7.5 ± 2.0", "unit": "ms"}, {"measurement": "Trep (Time to repolarizing peak)", "setting": "[1]; Mechanoreceptors (n = 9)", "result": "4.5 ± 1.7", "unit": "ms"}, {"measurement": "Vrest (Resting potential)", "setting": "[1]; Mechanoreceptors (n = 9)", "result": "−56.6 ± 2.0", "unit": "mV"}, {"measurement": "AHP (after-hyperpolarization potential)", "setting": "[1]; Nociceptors (n = 12)", "result": "−67.4 ± 1.3", "unit": "mV"}, {"measurement": "APamp (action potential amplitude)", "setting": "[1]; Nociceptors (n = 12)", "result": "115.4 ± 4.0", "unit": "mV"}, {"measurement": "APtime (total duration of action potential)", "setting": "[1]; Nociceptors (n = 12)", "result": "10.0 ± 1.5", "unit": "ms"}, {"measurement": "Input R", "setting": "[1]; Nociceptors (n = 12)", "result": "56.7 ± 5.2", "unit": "MΩ"}, {"measurement": "Threshold", "setting": "[1]; Nociceptors (n = 12)", "result": "1276.4 ± 256.0", "unit": "pA"}, {"measurement": "Tpeak (Time to action potential peak)", "setting": "[1]; Nociceptors (n = 12)", "result": "5.0 ± 0.7", "unit": "ms"}, {"measurement": "Trep (Time to repolarizing peak)", "setting": "[1]; Nociceptors (n = 12)", "result": "5.0 ± 1.1", "unit": "ms"}, {"measurement": "Vrest (Resting potential)", "setting": "[1]; Nociceptors (n = 12)", "result": "−59.5 ± 1.2", "unit": "mV"}, {"measurement": "parameters indicative of electrical excitability", "setting": "[1]; treated at least 3 h with 20 μM", "result": "no alteration"}, {"measurement": "self-association of STOML1 (BiFC)", "setting": "STOML1", "result": "effective inhibitor"}, {"measurement": "mechanical hypersensitivity after NGF", "setting": "NGF-injected mice; local intraplantar", "result": "not reversed"}, {"measurement": "NGF-induced thermal hyperalgesia", "setting": "NGF-injected mice; local treatment, systemic NGF-injection", "result": "not alleviate"}, {"measurement": "paw withdrawal thresholds to mechanical stimuli", "setting": "naive mice", "result": "no change"}, {"measurement": "withdrawal latency for radiant heat stimuli", "setting": "naive mice", "result": "no change"}, {"measurement": "mechanical hypersensitivity", "setting": "diabetic mice (STZ); 250 pmol per paw, 4 h after treatment", "result": "substantially reversed"}, {"measurement": "mechanical hypersensitivity, mean 60% withdrawal threshold", "setting": "diabetic mice (STZ); 24 h after a single treatment", "result": "returned to pre-drug treatment levels"}]}
